Source: patent publication US20200009173A1, “TRIAZOLE-CONTAINING MACROLIDES AND OPHTHALMIC USES THEREFOR” (Tetard, Inc., priority 2017, published 2020)
≈ marks a conversion by molar mass, not a printed value. Where two headings read alike, the source gives them in different places. Values belong to the compound of their own block, whether it stands above or below them.

How the values were obtained:
[1] = test system: P. Acnes; assay: MICs of solithromycin and comparator drugs against P. acnes; type: cell-based; conditions: for MIC50 / MIC90: Cutibacterium acnes
Text: EXAMPLE. The formulations described herein show overall higher potency against ocular pathogens than commercial standards. MICs (μg/ml) of Solithromycin and Comparator Drugs against P. Acnes (51 Species)

[2] = test system: H. influenzae; assay: MICs of solithromycin and comparator drugs, H. influenzae (30 species); type: cell-based; conditions: for MIC50 / MIC90: Haemophilus influenzae
Text: (§1) EXAMPLE. The formulations described herein show overall higher potency against ocular pathogens than commercial standards.
(§2) MICs (μg/ml) of Solithromycin and Comparator Drugs against Bacterial Species

[3] = test system: S. pneumoniae; assay: MICs of solithromycin and comparator drugs, S. pneumoniae (30 species); type: cell-based; conditions: for MIC50 / MIC90: Streptococcus pneumoniae
Text: as §1, §2

[4] = test system: MSSA; assay: MICs of solithromycin and comparator drugs, MSSA (31 species); type: cell-based; conditions: for MIC50 / MIC90: Staphylococcus aureus, MSSA
Text: as §1, §2

[5] = test system: S. epidermidis; assay: MICs of solithromycin and comparator drugs, S. epidermidis (30 species); type: cell-based; conditions: for MIC50 / MIC90: Staphylococcus epidermidis
Text: as §1, §2

[6] = test system: MSRA; assay: MICs of solithromycin and comparator drugs, MSRA (30 species); type: cell-based; conditions: for I (intermediate susceptibility) / NS (not susceptible) / S (susceptible): 30 species
Text: as §1, §2

[7] = test system: MMP9; assay: MMP9 activity in PMA-stimulated U937 cells (gelatin zymography); type: cell-based, human
Description: EXAMPLE. […] Cells. The human monocytic cell line U937 was obtained from the American Type Culture Collection (ATCC, Rockville, Md.). PBMCs from COPD patients were obtained from Brompton hospital and separated by AccuSPIN (Sigma-Aldrich). […] U937 cells were differentiated into adherent macrophage-like morphology by exposure to PMA (50 ng/ml) for 48 h in complete growth medium. Cell viability was assessed microscopically by trypan blue staining. Cell toxicity was determined by MTT assay as needed. This study was approved by the ethics committee of the Royal Brompton Hospitals, and all subjects gave written informed consent. Zymography. MMP9 enzyme activity was measured by gelatin zymography. […] After electrophoresis, gels were incubated and rinsed with Novex® zymogram renaturing buffer (Invitrogen) for 30 min at room temperature. The gels were then rinsed in Novex® zymogram developing buffer (Invitrogen) for 30 min at room temperature prior to overnight incubation in the developing buffer at 37° C. After incubation, the gels were stained using a Colloidal Blue Staining Kit (Invitrogen) to visualize the zymogen bands. Statistical analysis. The results were expressed as the mean±SEM. Comparisons of data in two groups were performed using the Student's t test or the Wilcoxon signed rank test. Multiple comparisons were made by one-way ANOVA with post hoc test (Dunnett's) as appropriate. The difference was considered significant at p<0.05.

[8] = test system: CXCL8; assay: CXCL8 (IL-8) production in LPS-stimulated PMA-differentiated U937 cells (ELISA); type: cell-based, human
Description: (§3) EXAMPLE. […] Cells. The human monocytic cell line U937 was obtained from the American Type Culture Collection (ATCC, Rockville, Md.). PBMCs from COPD patients were obtained from Brompton hospital and separated by AccuSPIN (Sigma-Aldrich). […] U937 cells were differentiated into adherent macrophage-like morphology by exposure to PMA (50 ng/ml) for 48 h in complete growth medium. Cell viability was assessed microscopically by trypan blue staining. Cell toxicity was determined by MTT assay as needed. This study was approved by the ethics committee of the Royal Brompton Hospitals, and all subjects gave written informed consent. Cytokine ELISA. TNFα and IL-8 concentrations in the supernatant of cell cultures were determined by sandwich ELISA according to the manufacturer's instructions (R&D Systems Europe, Abingdon, UK). Statistical analysis. The results were expressed as the mean±SEM. Comparisons of data in two groups were performed using the Student's t test or the Wilcoxon signed rank test. Multiple comparisons were made by one-way ANOVA with post hoc test (Dunnett's) as appropriate. The difference was considered significant at p<0.05. […] Anti-inflammatory effects of solithromycin in U937 cells.

[9] = test system: TNFα; assay: TNFα production in LPS-stimulated PMA-differentiated U937 cells (ELISA); type: cell-based, human
Description: as §3

[10] = at a higher concentration (333 μM)

SMILES: COCC1=C(C(=O)O)N2C(=O)[C@@H](NC(=O)/C(=N\OC)c3csc(N)n3)[C@H]2SC1 [Cefpodoxime]
MIC Range [1]: ≤0.015 to 2 µg/mL
MIC50 ([1]; 51 species): 0.5 µg/mL (≈ 1.17 µM)
MIC90 ([1]; 51 species): 2 µg/mL (≈ 4.68 µM)

SMILES: NC[C@H]1O[C@H](O[C@H]2[C@H](O)[C@@H](O[C@H]3O[C@H](CO)[C@@H](O)[C@H](N)[C@H]3O)[C@H](N)C[C@@H]2N)[C@H](N)C[C@@H]1O [Tobramycin]
MIC Range [2]: 2 to 8 µg/mL
MIC50 [2]: 4 µg/mL (≈ 8.56 µM)
MIC90 [2]: 4 µg/mL (≈ 8.56 µM)
MIC Range [3]: 4 to 16 µg/mL
MIC50 [3]: 16 µg/mL (≈ 34.2 µM)
MIC90 [3]: 16 µg/mL (≈ 34.2 µM)
I (intermediate susceptibility) [4]: 0%
MIC Range [4]: 0.12 to 4 µg/mL
NS (not susceptible) [4]: 0%
S (susceptible) [4]: 100%
MIC50 [4]: 0.5 µg/mL (≈ 1.07 µM)
MIC90 [4]: 0.5 µg/mL (≈ 1.07 µM)
I (intermediate susceptibility) [5]: 3%
MIC Range [5]: 0.12 to 64 µg/mL
NS (not susceptible) [5]: 23%
S (susceptible) [5]: 73%
MIC50 [5]: 0.5 µg/mL (≈ 1.07 µM)
MIC90 [5]: 32 µg/mL (≈ 68.4 µM)
MIC50 [6]: 1 µg/mL (≈ 2.14 µM)
MIC90 [6]: > 64 µg/mL
I (intermediate susceptibility) [6]: 3%
NS (not susceptible) [6]: 30%
S (susceptible) [6]: 67%

SMILES: CC[C@H]1OC(=O)[C@H](C)[C@@H](O[C@H]2C[C@@](C)(OC)[C@@H](O)[C@H](C)O2)[C@H](C)[C@@H](O[C@@H]2O[C@H](C)C[C@H](N(C)C)[C@H]2O)[C@](C)(O)C[C@@H](C)C(=O)[C@H](C)[C@@H](O)[C@]1(C)O [erythromycin]
effect on MMP9 activity [7]: no effect
effect on IL-8 production ([8]; concentration not given): did not inhibit
effect on TNFα production ([9]; concentration not given): did not inhibit

IC50 ([7]; Homo sapiens, U-937): 97.9 µM
SMILES: CC[C@H]1OC(=O)[C@H](C)C(=O)[C@H](C)[C@@H](O[C@@H]2O[C@H](C)C[C@H](N(C)C)[C@H]2O)[C@](C)(OC)C[C@@H](C)C(=O)[C@H](C)[C@H]2N(CCCCn3cnc(-c4cccnc4)c3)C(=O)O[C@]12C [Telithromycin]
effect on CXCL8 production ([8]; at 100 μM): did not inhibit
effect on TNFα production ([9]; at 100 μM): did not inhibit

SMILES: C[C@H]1c2cccc(O)c2C(=O)C2=C(O)[C@]3(O)C(=O)C(C(N)=O)=C(O)[C@@H](N(C)C)[C@@H]3[C@@H](O)[C@@H]21 [Doxycycline]
MIC Range [1]: ≤0.008 to 1 µg/mL
MIC50 ([1]; 51 species): 0.06 µg/mL (≈ 0.135 µM)
MIC90 ([1]; 51 species): 0.12 µg/mL (≈ 0.27 µM)

SMILES: CC[C@H]1OC(=O)[C@H](C)[C@@H](O[C@H]2C[C@@](C)(OC)[C@@H](O)[C@H](C)O2)[C@H](C)[C@@H](O[C@@H]2O[C@H](C)C[C@H](N(C)C)[C@H]2O)[C@](C)(OC)C[C@@H](C)C(=O)[C@H](C)[C@@H](O)[C@]1(C)O [Clarithromycin, clarithromycin]
MIC Range [1]: ≤0.015 to 0.5 µg/mL
MIC50 ([1]; 51 species): ≤ 0.015 µg/mL
MIC90 ([1]; 51 species): 0.25 µg/mL (≈ 0.334 µM)
inhibitory effect on MMP9 activity, lower than solithromycin [7]: 10 fold
IC50 ([8]; Homo sapiens, U-937, LPS, PMA-differentiated U937 cells, read-out: IC50 on CXCL8 release): 506 ± 44 µM
effect on IL-8 production [8, 10]: modest effects
IC50 ([9]; Homo sapiens, U-937, LPS, PMA-differentiated U937 cells, read-out: IC50 on TNFα release): 426 ± 63.9 µM
effect on TNFα production [9, 10]: modest effects

SMILES: COc1c(N2C[C@@H]3CCCN[C@@H]3C2)c(F)cc2c(=O)c(C(=O)O)cn(C3CC3)c12 [Moxifloxacin]
I (intermediate susceptibility) [2]: 0%
MIC Range [2]: 0.015 to 0.06 µg/mL
NS (not susceptible) [2]: 0%
S (susceptible) [2]: 100%
MIC50 [2]: 0.03 µg/mL (≈ 0.0747 µM)
MIC90 [2]: 0.06 µg/mL (≈ 0.149 µM)
I (intermediate susceptibility) [3]: 0%
MIC Range [3]: 0.015 to 0.25 µg/mL
NS (not susceptible) [3]: 0%
S (susceptible) [3]: 100%
MIC50 [3]: 0.12 µg/mL (≈ 0.299 µM)
MIC90 [3]: 0.25 µg/mL (≈ 0.623 µM)
I (intermediate susceptibility) [4]: 0%
MIC Range [4]: 0.015 to 2 µg/mL
NS (not susceptible) [4]: 6%
S (susceptible) [4]: 94%
MIC50 [4]: 0.06 µg/mL (≈ 0.149 µM)
MIC90 [4]: 0.12 µg/mL (≈ 0.299 µM)
I (intermediate susceptibility) [5]: 3%
NS (not susceptible) [5]: 13%
S (susceptible) [5]: 83%
MIC50 [5]: 0.06 µg/mL (≈ 0.149 µM)
MIC90 [5]: 4 µg/mL (≈ 9.96 µM)
MIC50 [6]: 2 µg/mL (≈ 4.98 µM)
MIC90 [6]: 8 µg/mL (≈ 19.9 µM)
I (intermediate susceptibility) [6]: 3%
NS (not susceptible) [6]: 87%
S (susceptible) [6]: 10%

SMILES: C[C@H]1COc2c(N3CCN(C)CC3)c(F)cc3c(=O)c(C(=O)O)cn1c23 [Levofloxacin]
MIC Range [1]: 0.06 to 2 µg/mL
MIC50 ([1]; 51 species): 1 µg/mL (≈ 2.77 µM)
MIC90 ([1]; 51 species): 1 µg/mL (≈ 2.77 µM)

SMILES: C=CC1=C(C(=O)O)N2C(=O)[C@@H](NC(=O)/C(=N\O)c3csc(N)n3)[C@H]2SC1 [Cefdinir]
MIC Range [1]: ≤0.015 to 0.12 µg/mL
MIC50 ([1]; 51 species): 0.03 µg/mL (≈ 0.0759 µM)
MIC90 ([1]; 51 species): 0.12 µg/mL (≈ 0.303 µM)

SMILES: CC(=O)NC[C@H]1CN(c2ccc(N3CCOCC3)c(F)c2)C(=O)O1 [Linezolid]
MIC Range [1]: ≤0.03 to 0.5 µg/mL
MIC50 ([1]; 51 species): 0.25 µg/mL (≈ 0.741 µM)
MIC90 ([1]; 51 species): 0.5 µg/mL (≈ 1.48 µM)

SMILES: CN[C@H](CC(C)C)C(=O)N[C@H]1C(=O)N[C@@H](CC(N)=O)C(=O)N[C@H]2C(=O)N[C@H]3C(=O)N[C@H](C(=O)N[C@H](C(=O)O)c4cc(O)cc(O)c4-c4cc3ccc4O)[C@H](O)c3ccc(c(Cl)c3)Oc3cc2cc(c3O[C@@H]2O[C@H](CO)[C@@H](O)[C@H](O)[C@H]2O[C@H]2C[C@](C)(N)[C@H](O)[C@H](C)O2)Oc2ccc(cc2Cl)[C@H]1O [Vancomycin]
MIC Range ([1]; 51 species): 0.12 to 1 µg/mL
MIC50 ([1]; 51 species): 1 µg/mL (≈ 0.69 µM)
MIC90 ([1]; 51 species): 1 µg/mL (≈ 0.69 µM)

SMILES: C=CC1=C(C(=O)O)N2C(=O)[C@@H](NC(=O)/C(=N\OCC(=O)O)c3csc(N)n3)[C@H]2SC1 [Cefixime]
MIC Range [1]: ≤0.03 to 0.5 µg/mL
MIC50 ([1]; 51 species): 0.25 µg/mL (≈ 0.551 µM)
MIC90 ([1]; 51 species): 0.5 µg/mL (≈ 1.1 µM)
